# Legend:
# [1] = Metabolic stability in rat liver microsomes assessed as intrinsic clearance at 1 uM after 90 mins; type: ADME, Microsome
# [2] = Clearance in Sprague-Dawley rat plasma at 3 mg/kg, iv and 3 mg/kg, po; type: ADME, organism-based
# [3] = Metabolic stability in human liver microsomes assessed as intrinsic clearance at 1 uM after 90 mins; type: ADME, Microsome; settings: liver microsomes
# [4] = target: Histone deacetylase 1 (Homo sapiens, UniProt Q13547)
# Description: Inhibition of human C-terminal FLAG-tagged HDAC1 in HEK293 cells
# [5] = tested on: HeLa; experiment: Antiproliferative activity against human P53-deficient HeLa cells after 72 hrs by celltiter-blue cell viability assay; type: functional
# [6] = Metabolic stability in dog liver microsomes assessed as intrinsic clearance at 1 uM after 90 mins; type: ADME, Canis lupus familiaris, Microsome; settings: liver microsomes
# [7] = tested on: HCT-116; experiment: Antiproliferative activity against human P53 expressing HCT116 cells after 72 hrs by celltiter-blue cell viability assay; type: functional
# [8] = tested on: G-401; experiment: Antiproliferative activity against human G401 cells after 72 hrs by celltiter-blue cell viability assay; type: functional
# [9] = tested on: MCF7; experiment: Antiproliferative activity against human MCF7 cells after 72 hrs by celltiter-blue cell viability assay; type: functional
# Histone deacetylase 1, sequence (Q13547 whole entry): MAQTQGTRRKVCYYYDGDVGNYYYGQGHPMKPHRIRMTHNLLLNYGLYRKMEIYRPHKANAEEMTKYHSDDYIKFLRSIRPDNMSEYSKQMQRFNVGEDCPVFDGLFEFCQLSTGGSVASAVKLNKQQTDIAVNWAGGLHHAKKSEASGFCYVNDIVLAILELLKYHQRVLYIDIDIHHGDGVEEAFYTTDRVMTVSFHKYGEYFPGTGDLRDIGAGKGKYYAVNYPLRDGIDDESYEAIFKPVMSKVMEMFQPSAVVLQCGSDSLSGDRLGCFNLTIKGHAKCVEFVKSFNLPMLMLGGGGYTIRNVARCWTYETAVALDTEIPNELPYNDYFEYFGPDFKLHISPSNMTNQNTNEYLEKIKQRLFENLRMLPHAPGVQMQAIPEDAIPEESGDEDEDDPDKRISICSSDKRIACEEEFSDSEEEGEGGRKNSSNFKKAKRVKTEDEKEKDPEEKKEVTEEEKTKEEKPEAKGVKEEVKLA
SMILES,microsomal CLint at 1 µM [1] [µL/min/mg],clearance [2] [mL/min/kg],microsomal CLint at 1 µM [3] [µL/min/mg],IC50 [4] [nM],CC50 [5] [nM],microsomal CLint at 1 µM [6] [µL/min/mg],CC50 [7] [nM],CC50 [8] [nM],CC50 [9] [nM]
CCC(=O)CCCCC[C@H](NC(=O)C1CCN(C)CC1)c1ncc(-c2cc(OC)c3ccccc3n2)[nH]1,36,36,10,30,770,5,,,
CCC(=O)CCCCC[C@H](NC(=O)C1CCN(C)CC1)c1ncc(-c2ccc3ncccc3c2)[nH]1,98,,12,2,200,23,,,
CCC(=O)CCCCC[C@H](NC(=O)C1CCN(C)CC1)c1ncc(-c2ccc3ccccc3c2)[nH]1,> 200,,194,,210,194,,,
CCC(=O)CCCCC[C@H](NC(=O)C1CN(C)C1)c1ncc(-c2cnc3ccccc3n2)[nH]1,27,,19,8,430,20,,,
CCC(=O)CCCCC[C@H](NC(=O)C1CCN(C)CC1)c1ncc(-c2cnc3ccccc3c2)[nH]1,510,,49,4,250,24,,,
CCC(=O)CCCCC[C@H](NC(=O)C1CN(C)C1)c1ncc(-c2cc(OC)c3ccccc3n2)[nH]1,15,20,16,162,970,9,,,
CCC(=O)CCCCC[C@H](NC(=O)C1CN(C)C1)c1ncc(-c2ccc3nccnc3c2)[nH]1,13,,< 1,39,1200,3,,,
O=C(CCCCCCC(=O)Nc1ccccc1)NO [VORINOSTAT],,,,,,,1000,1000,3000
